This is an account of results in PMC7932029 (Journal of natural products, 2020).

Data set [1] deals with C57BL/6 mice. As to the kind of experiment: Tail flick thermal nociception assay. It is filed as in vivo, mouse.
Data set [2] relates to C57BL/6 mice. Put plainly: Hot plate thermal nociception assay. It is filed as in vivo, mouse.
The target in data set [3] is T1, μOR (Homo sapiens, UniProt P35372). As to the kind of experiment: PathHunter β-arrestin 2 recruitment assay, μOR.
Data set [4] deals with HA-mouse μOR (Mus musculus, UniProt P42866). As to the kind of experiment: GloSensor cAMP inhibition assay, μOR. The class given is cell-based. As to conditions: efficacy normalized to positive control DAMGO.
Sequence of HA-mouse μOR (P42866 whole entry): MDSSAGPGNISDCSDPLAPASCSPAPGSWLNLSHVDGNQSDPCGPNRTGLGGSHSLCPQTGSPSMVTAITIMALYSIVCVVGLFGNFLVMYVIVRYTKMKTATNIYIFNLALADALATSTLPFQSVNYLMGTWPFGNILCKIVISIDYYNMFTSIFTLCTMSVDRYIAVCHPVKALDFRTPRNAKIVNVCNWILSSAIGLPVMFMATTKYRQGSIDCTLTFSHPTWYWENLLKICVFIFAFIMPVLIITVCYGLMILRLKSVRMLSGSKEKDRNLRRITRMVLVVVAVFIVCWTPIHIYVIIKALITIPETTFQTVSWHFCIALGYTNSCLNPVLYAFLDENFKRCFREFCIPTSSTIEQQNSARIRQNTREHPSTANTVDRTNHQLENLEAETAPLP
Data set [5] deals with T2, κOR (Homo sapiens, UniProt P41145). The class given is cell-based.
T2 sequence (P41145 whole entry): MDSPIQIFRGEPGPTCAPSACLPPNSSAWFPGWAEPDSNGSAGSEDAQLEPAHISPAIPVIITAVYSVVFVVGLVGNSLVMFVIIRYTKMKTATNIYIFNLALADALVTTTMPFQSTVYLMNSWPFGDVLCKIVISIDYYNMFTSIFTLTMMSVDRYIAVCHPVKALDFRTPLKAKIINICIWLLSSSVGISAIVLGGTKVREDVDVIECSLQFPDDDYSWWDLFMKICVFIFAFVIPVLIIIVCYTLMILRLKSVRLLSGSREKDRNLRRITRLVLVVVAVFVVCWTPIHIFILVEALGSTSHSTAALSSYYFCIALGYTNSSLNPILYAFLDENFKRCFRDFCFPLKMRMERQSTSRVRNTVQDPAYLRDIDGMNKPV
The target of data set [6] is FLAG-mouse κOR (Mus musculus, UniProt P33534). The class given is cell-based.
Sequence of FLAG-mouse κOR (P33534 whole entry): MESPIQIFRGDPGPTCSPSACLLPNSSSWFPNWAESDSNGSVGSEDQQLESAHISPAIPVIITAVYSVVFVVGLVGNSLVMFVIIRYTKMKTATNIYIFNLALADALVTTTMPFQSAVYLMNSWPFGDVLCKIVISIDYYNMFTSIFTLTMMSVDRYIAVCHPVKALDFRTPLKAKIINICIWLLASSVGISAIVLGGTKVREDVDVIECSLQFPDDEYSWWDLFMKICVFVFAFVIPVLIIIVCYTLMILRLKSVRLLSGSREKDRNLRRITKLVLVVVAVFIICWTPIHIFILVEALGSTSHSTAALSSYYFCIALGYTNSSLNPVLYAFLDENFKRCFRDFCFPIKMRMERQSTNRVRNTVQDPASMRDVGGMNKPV
The target in data set [7] is T1, μOR. As to the kind of experiment: PDSP primary radioligand displacement screen, μOR. The class given is binding. To be noted: 10 μM.
Data set [8] addresses FLAG-mouse δOR (Mus musculus, UniProt P32300). As to the kind of experiment: GloSensor cAMP inhibition assay, δOR. The class given is cell-based. As to conditions: efficacy normalized to positive control Leu-Enk.
Data set [9] deals with human δOR (Homo sapiens, UniProt P41143). Put plainly: PathHunter β-arrestin 2 recruitment assay, δOR. As to conditions: highest concentration tested, in words.
Sequence of human δOR (P41143 whole entry): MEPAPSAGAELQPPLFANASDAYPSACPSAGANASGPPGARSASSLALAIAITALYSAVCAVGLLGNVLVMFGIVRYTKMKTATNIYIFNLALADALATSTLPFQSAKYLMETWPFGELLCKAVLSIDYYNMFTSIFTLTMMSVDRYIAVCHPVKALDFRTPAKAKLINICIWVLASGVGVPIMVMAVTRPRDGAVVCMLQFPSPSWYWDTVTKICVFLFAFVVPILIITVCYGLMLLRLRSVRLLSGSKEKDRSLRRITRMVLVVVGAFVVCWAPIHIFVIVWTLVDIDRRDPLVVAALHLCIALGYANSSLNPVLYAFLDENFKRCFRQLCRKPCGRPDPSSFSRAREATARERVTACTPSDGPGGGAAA
Data set [10] has as its target T2, κOR. It is filed as binding.
Data set [11] deals with Wistar rats. To be noted: p.o., cited from earlier work.
Data set [12] in a line: Partition coefficients of akuamma alkaloids in CCS solvent systems. It is filed as physicochemical. As to conditions: for Kacid: 10 mM HCl; for Kbase: 10 mM TEA.
The target of data set [13] is T2, κOR. As to the kind of experiment: PDSP secondary binding assay, κOR.
Where [14] appears, read: 5 mg/kg p.o., any of the timepoints tested.

The structures appear in SMILES notation. Where a name gives a salt, the structure may show the parent alone.

T1 sequence (P35372 whole entry): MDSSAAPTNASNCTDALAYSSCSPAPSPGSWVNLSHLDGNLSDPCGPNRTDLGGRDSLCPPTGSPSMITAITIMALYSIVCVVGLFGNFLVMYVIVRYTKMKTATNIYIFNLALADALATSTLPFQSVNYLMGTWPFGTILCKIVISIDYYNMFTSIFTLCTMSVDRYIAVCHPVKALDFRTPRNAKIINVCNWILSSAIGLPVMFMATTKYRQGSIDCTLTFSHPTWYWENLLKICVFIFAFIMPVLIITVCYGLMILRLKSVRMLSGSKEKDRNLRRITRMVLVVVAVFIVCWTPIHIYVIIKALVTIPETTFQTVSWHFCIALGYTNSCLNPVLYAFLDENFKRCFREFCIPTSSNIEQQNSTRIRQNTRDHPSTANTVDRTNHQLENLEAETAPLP
Sequence of FLAG-mouse δOR (P32300 whole entry): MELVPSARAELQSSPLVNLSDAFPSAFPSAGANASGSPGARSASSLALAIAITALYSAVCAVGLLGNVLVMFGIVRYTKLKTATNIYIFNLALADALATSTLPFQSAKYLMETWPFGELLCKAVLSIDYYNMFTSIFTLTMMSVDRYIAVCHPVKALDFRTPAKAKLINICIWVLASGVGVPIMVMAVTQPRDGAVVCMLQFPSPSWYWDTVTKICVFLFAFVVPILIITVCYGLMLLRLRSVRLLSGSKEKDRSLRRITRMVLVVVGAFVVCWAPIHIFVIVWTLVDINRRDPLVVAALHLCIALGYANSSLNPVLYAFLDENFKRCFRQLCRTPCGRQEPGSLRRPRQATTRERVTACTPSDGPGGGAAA

Take `CN1CC[C@]23c4c5ccc(O)c4O[C@H]2[C@@H](O)C=C[C@H]3[C@H]1C5` [morphine, morphine sulfate pentahydrate, reference compound]: the antinociception entry in [1] (6 mg/kg s.c., 30 min) was “significant antinociception”; in [2] (6 mg/kg s.c., 30 min), “significant antinociception”.

For the molecule `C[C@@H](NC(=O)[C@@H](N)Cc1ccc(O)cc1)C(=O)NCC(=O)N(C)[C@@H](Cc1ccccc1)C(=O)NCCO` [DAMGO, (2S)-2-[[2-[[(2R)-2-[[(2S)-2-Amino-3-(4-hydroxyphenyl)propanoyl]amino]propanoyl]amino]acetyl]-methylamino]-N-(2-hydroxyethyl)-3-phenylpropanamide, reference compound], the “β-arrestin 2 α” value in data set [3] (efficacy normalized to positive control DAMGO) was 100. Besides, in [4], the “cAMP α” value is 100.

As for `C/C=C1/CN2CC[C@@]34c5cc(O)ccc5N(C)[C@]35OC[C@@]4(C(=O)OC)[C@H]1C[C@H]25` [Compound 1, akuammine], in data set [5], the “β-arrestin 2 α” value turned out to be 35 ± 6. In addition, the cAMP inhibition entry in data set [6] is listed as “did not inhibit cAMP production”. For the same molecule, the antinociception result is “minimal yet statistically significant antinociception” in [1] (3 mg/kg s.c., 110 minutes); “minimal yet statistically significant antinociception” in [1] (60 mg/kg s.c., 30 minutes); “no antinociception was measurable” in data set [1] (oral dosing, data not shown); “minimal yet statistically significant antinociception” in [2] (3 mg/kg s.c., 110 minutes); “minimal yet statistically significant antinociception” in data set [2] (30 mg/kg s.c., 60 minutes); “minimal yet statistically significant antinociception” in data set [2] (60 mg/kg s.c., 30 minutes). Moreover, the antinociception result in [2] (oral dosing, data not shown) is given as “no antinociception was measurable”. Besides, in data set [7], the “displacement of [3H]-DAMGO” value is reported as “displaced”. Besides, the entries for the “cAMP α” value in data set [8] and in data set [4] were 50 ± 35 and 62 ± 6, respectively.

Regarding `C/C=C1/CN2[C@H]3Cc4c([nH]c5ccccc45)[C@@H]2C[C@@H]1[C@]3(CO)C(=O)OC` [Compound 2, akuammidine], in data set [3] (highest concentration tested, in words), the “β-arrestin 2 recruitment” value is listed as “minimal recruitment”. Besides, the antinociception entry in data set [1] (10 mg/kg s.c., 50 minutes) is on record as “minimal yet statistically significant antinociception”; in data set [1] (30 mg/kg s.c., 30 minutes) it was “minimal yet statistically significant antinociception”; in data set [1] (oral dosing, data not shown) it was “no antinociception was measurable”; in data set [2] (3 mg/kg s.c., 110 minutes) it was “minimal, yet statistically significant, antinociception”; in data set [2] (oral dosing, data not shown), “no antinociception was measurable”. In data set [9], the β-arrestin recruitment result was “minimal recruitment”. In [10], the “Binding pKi” value is recorded as −4.8 ± 0.1 (3).

As to `C/C=C1/CN2CC[C@@]34c5ccccc5N(C)[C@]35OC[C@@]4(C(=O)OC)[C@H]1C[C@H]25` [Compound 3, pseudo-akuammigine], the “β-arrestin 2 α” value in [5] was 20 ± 20. The “cAMP α” value in data set [6] stood at 69 ± 8; in [4], 82 ± 7. For the same molecule, the antinociception entry is given as “antinociceptive” in data set [11] (Wistar rats, 5 mg/kg); “did not produce antinociception” in [1] (setting [14]); “minimal yet statistically significant antinociception” in [1] (5 mg/kg s.c., 30 minutes); “minimal yet statistically significant antinociception” in data set [1] (5 mg/kg s.c., 60 minutes); “failed to produce antinociception” in data set [1] (10 mg/kg s.c., 30 minutes); “did not produce antinociception” in data set [2] (setting [14]). Moreover, the antinociception entry in [2] (5 mg/kg s.c., 30 minutes) is “minimal yet statistically significant antinociception”; in data set [2] (10 mg/kg s.c., 30 minutes) it was “failed to produce antinociception”. In addition, in [11] (rats), the “time of peak antinociceptive activity” value was 180 min. Moreover, the “displacement of [3H]-DAMGO” value in data set [7] is listed as “displaced”. Further, the Kacid was <<0.01 in data set [12] (1:1:1:1 Hex/EtOAc/MeOH/H2O), 0.10 in [12] (1:1 EtOAc/H2O), 0.25 in [12] (3:1.5:4 MTBE/CH3CN/H2O) and <<0.01 in [12] (3:7:3:7 Hex/EtOAc/MeOH/H2O). For the same molecule, the Kbase is 2.71 in data set [12] (1:1:1:1 Hex/EtOAc/MeOH/H2O); 51.9 in data set [12] (1:1 EtOAc/H2O); 87.0 in [12] (2:2:3 MTBE/CH3CN/H2O); 30.9 in data set [12] (3:1.5:4 MTBE/CH3CN/H2O); 32.3 in [12] (3:7:3:7 Hex/EtOAc/MeOH/H2O).

For the molecule `C/C=C1/CN2CC[C@]34C(=C(C(=O)OC)[C@H]1C[C@H]23)Nc1ccccc14` [Compound 4, akuammicine], affinity in [13] was put at a Ki of 170 nM. In addition, in data set [7], the “displacement of [3H]-DAMGO” value is reported as “displaced”. The Kacid in data set [12] (1:1:1:1 Hex/EtOAc/MeOH/H2O) is on record as <<0.01; in data set [12] (1:1 EtOAc/H2O), 0.02; in data set [12] (2:2:3 MTBE/CH3CN/H2O), 0.61; in data set [12] (3:1.5:4 MTBE/CH3CN/H2O), 0.14; in data set [12] (3:7:3:7 Hex/EtOAc/MeOH/H2O), <<0.01. Further, the Kbase is given as 1.63 in data set [12] (1:1:1:1 Hex/EtOAc/MeOH/H2O); 222 in data set [12] (1:1 EtOAc/H2O); 27.7 in data set [12] (2:2:3 MTBE/CH3CN/H2O); 64.1 in data set [12] (3:1.5:4 MTBE/CH3CN/H2O); 28.9 in [12] (3:7:3:7 Hex/EtOAc/MeOH/H2O). Besides, in data set [10], the “Binding pKi” value was −7.1 ± 0.1 (3).

Turning to `C/C=C1/CN2CC[C@]34C(=Nc5ccccc53)[C@@H]2C[C@@H]1[C@@]4(COC(C)=O)C(=O)OC` [Compound 5, akuammiline], in [13], the Ki is 400 nM. For the same molecule, the “displacement of [3H]-DAMGO” value in data set [7] is listed as “significantly less displacement”. The Kacid in data set [12] (1:1:1:1 Hex/EtOAc/MeOH/H2O) is reported as <<0.01; in [12] (1:1 EtOAc/H2O), 0.03; in [12] (2:2:3 MTBE/CH3CN/H2O), 0.27; in [12] (3:1.5:4 MTBE/CH3CN/H2O), 0.05; in data set [12] (3:7:3:7 Hex/EtOAc/MeOH/H2O) it was <<0.01. Moreover, the Kbase in [12] (1:1:1:1 Hex/EtOAc/MeOH/H2O) came out at 0.23; in [12] (1:1 EtOAc/H2O), 28.2; in data set [12] (2:2:3 MTBE/CH3CN/H2O) it was 5.61; in data set [12] (3:1.5:4 MTBE/CH3CN/H2O), 6.82; in [12] (3:7:3:7 Hex/EtOAc/MeOH/H2O) it was 2.53. The “Binding pKi” value in data set [10] is given as −6.0 ± 0.1 (3).

Take `C/C=C1/CN2[C@@H]3C[C@@]45c6ccccc6N[C@]4(O3)[C@@H]2C[C@@H]1[C@@]5(COC(C)=O)C(=O)OC` [Compound 6, picraline]: the “displacement of [3H]-DAMGO” value in data set [7] is “significantly less displacement”. The Kacid in data set [12] (1:1:1:1 Hex/EtOAc/MeOH/H2O) is reported as <<0.01; in [12] (1:1 EtOAc/H2O), 0.03; in data set [12] (2:2:3 MTBE/CH3CN/H2O), 0.56; in data set [12] (3:1.5:4 MTBE/CH3CN/H2O), 0.10; in data set [12] (3:7:3:7 Hex/EtOAc/MeOH/H2O), 0.01. Moreover, the Kbase in data set [12] (1:1:1:1 Hex/EtOAc/MeOH/H2O) was determined as 0.82; in data set [12] (1:1 EtOAc/H2O) it was 16.09; in [12] (2:2:3 MTBE/CH3CN/H2O), 11.4; in data set [12] (3:1.5:4 MTBE/CH3CN/H2O), 17.4; in data set [12] (3:7:3:7 Hex/EtOAc/MeOH/H2O) it was 7.29.
